Measurements as given in patent US7605185B2, “Treatment of arrhythmia by retinoids affecting signal transduction” (priority 1999, dated 2009).

Legend:
cardiac myocytes = experiment: TUNEL apoptosis staining with anti-myosin counterstain, confocal microscopy; format: in vivo, mouse
Description: 1 week old litters of C57/b mice (around 3 g body weight) were divided into groups of five to 10 animals, to be treated with all-trans-RA in carrier, 9cis-RA in carrier, or carrier (canola oil, Sigma). Every treatment group was assigned to one nursing mother. Groups larger than 10 pups were avoided, to exclude limited feeding frequency as experimental variable. […] DMSO or ethanol content was limited to 0.1%. Pups were gavage-fed from a tuberculin syringe connected with a bent vein catheter. The strong suckling reflex facilitated delivery of the viscous and odorous formulation. Depending on the territorial protection behaviour of the mother, pups were briefly rolled in cage stray after gavage to prevent triggering maternal infanticide behaviour through unusual smell of the pups. For two hours after gavage, pups were carefully monitored to prevent maternal infanticide. Every 24 h, the weight was recorded.
(§1) For uptake kinetics, pairs of treated pups were sacrificed by decapitation after 1 h, 2 h, 4 h, 8 h, 16 h, 24 h, 36 h and 72 h. Organs were removed under the dissection microscope and frozen in liquid nitrogen. […]

[1] = Death of mouse pups after gavage; format: in vivo; conditions: nonmutagenic amounts
Description: (§2) 1 week old litters of C57/b mice (around 3 g body weight) were divided into groups of five to 10 animals, to be treated with all-trans-RA in carrier, 9cis-RA in carrier, or carrier (canola oil, Sigma). Every treatment group was assigned to one nursing mother. Groups larger than 10 pups were avoided, to exclude limited feeding frequency as experimental variable. A retinoid preparation for gavage was formulated such that every animal received a maximum of 150 μl volume containing 40 mg/kg all-trans RA in carrier, 12 mg/kg or 20 mg/kg 9cis-RA in carrier, or carrier alone. DMSO or ethanol content was limited to 0.1%. Pups were gavage-fed from a tuberculin syringe connected with a bent vein catheter. The strong suckling reflex facilitated delivery of the viscous and odorous formulation. Depending on the territorial protection behaviour of the mother, pups were briefly rolled in cage stray after gavage to prevent triggering maternal infanticide behaviour through unusual smell of the pups. For two hours after gavage, pups were carefully monitored to prevent maternal infanticide. Every 24 h, the weight was recorded.
as §1

IGFBP5 = experiment: Confocal immunohistology of IGF pathway proteins in cardiac cell types; format: in vivo, mouse; conditions: after treatment, dose not stated
Description: as §2, with “The strong suckling reflex facilitated delivery of the viscous and odorous formulation. Depending on the territorial protection behaviour of the mother, pups were briefly rolled in cage stray after gavage to prevent triggering maternal infanticide behaviour through unusual smell of the pups.” left out, “recorded. […]” for “recorded.”
The mechanism of apoptosis was investigated using commercially available primary antibodies of highest purity, at dilutions recommended by the manufacturer, against IGF-1, IGF-II, the entire set of IGFbinding proteins (IGFBP1-5), IGF-R, mitochondrial Mn-dependent superoxide dismutase Mn-SOD, and cytoplasmic Cu/Zn-dependent superoxide dismutase Cu/Zn-SOD. […] Confocal images were captured and processed for quantitative analysis by Zeiss LSM-300 software. […] At least five independent regions of similar size were analyzed per tissue type and retinoid treatment condition. […]

[2] = system: endogenous peroxidase activity; experiment: Gas release from heart tissue sections on addition of H2O2; format: in vivo, mouse; conditions: 20 mg/kg
Description: as §2, with “The strong suckling reflex facilitated delivery of the viscous and odorous formulation. Depending on the territorial protection behaviour of the mother, pups were briefly rolled in cage stray after gavage to prevent triggering maternal infanticide behaviour through unusual smell of the pups.” left out
Another observation with significant ramifications is the substantial activation of pathways metabolizing reactive oxygen species in cardiac tissue after administration of 20 mg/kg of 9cis-RA. […] Second, very high upregulation of MnSOD protein signal was detected in connexin-positive cells of the cardiac outflow tract; the signal of 3.4 fold upregulation localizes to the region of the atrium surrounding the sino-atrial node; the signal of 11 fold upregulation localizes most likely to the area of the sino-atrial node proper. […]

[3] = system: mouse heart (cardiomyocytes); experiment: Perinatal mouse heart model: cardiac growth, heart size and weight after retinoid gavage; format: in vivo
Description: as §2
(§3) For uptake kinetics, pairs of treated pups were sacrificed by decapitation after 1 h, 2 h, 4 h, 8 h, 16 h, 24 h, 36 h and 72 h. Organs were removed under the dissection microscope and frozen in liquid nitrogen. Hearts were dissected under the surgical dissection microscope; tissues were divided into atria, ventricles, and enriched in conductance system (a tissue preparation containing the ventricular septa with the Purkinje fibers and the atrial region between the aorta and the pulmonal artery (outflow tract) with the sinus node). For immunohistology, pups were sacrificed after 72 h, hearts were rinsed in PBS, weighed and fixed in 4% para-formaldehyde in PBS before embedding in OCT for standard cryostat procedures. If pups were on the brink of death (typically between 36 and 72 h after gavage), they were sacrificed, and hearts were collected for confocal microscopy or HPLC.

[4] = system: mitochondrial Mn-dependent superoxide dismutase Mn-SOD; experiment: Quantitative confocal immunohistology of Mn-SOD protein signal in cardiac outflow tract; format: in vivo, mouse; conditions: 20 mg/kg; for upregulation of MnSOD protein signal: connexin-positive cells
Description: as §2, with “recorded. […]” for “recorded.”
The mechanism of apoptosis was investigated using commercially available primary antibodies of highest purity, at dilutions recommended by the manufacturer, against IGF-1, IGF-II, the entire set of IGFbinding proteins (IGFBP1-5), IGF-R, mitochondrial Mn-dependent superoxide dismutase Mn-SOD, and cytoplasmic Cu/Zn-dependent superoxide dismutase Cu/Zn-SOD. […] Confocal images were captured and processed for quantitative analysis by Zeiss LSM-300 software. Briefly, the pixel intensities per unit area amounting to channel background were determined for each antibody/seconday antibody combination and subtracted from the experimental pixel intensities. […] At least five independent regions of similar size were analyzed per tissue type and retinoid treatment condition. Averaged pixel intensities per unit area upon 9cis retinoid induction were expressed as multiples of averaged pixel intensities per unit area in the absence of 9cis retinoid induction (fold induction +/−s.e.m.)

[5] = system: cardiac conductance cells and cardiac neurons; experiment: TUNEL apoptosis staining with connexin37/40 or neuron-specific enolase counterstain, confocal microscopy; format: in vivo, mouse
Description: as §2, §3
For confocal microscopy, cryostat sections were first stained for apoptotic DNA strand breaks according to the TUNEL protocol (using the commercially available Apoptag™ kit, Oncor Inc., Gaithersburg Md.) and counterstained with rabbit anti-connexin37 antibody or rabbit anti-connexin40 antibody for conductance cells, or with rabbit anti-myosin antibody for cardiac myocytes. Immunodetection of connexin isoforms 40 and 43 has been established as a useful method to detect cells of the cardiac conductance system in rodents (Gourdie et al., The spatial distribution and relative abundance of gap-junctional connexin40 and connexin43 correlate to functional properties of components of the cardiac atrioventricular conducting system, J. Cell Science 105 (Pt 4) 985-991, 1993); because of the relatively weak signal of connexin40, the connexin isoform 37 can be used as equivalent marker for the conductance system in the mouse model (Willecke K et al, 1991; Willecke K, personal communication). The combination of rabbit anti-Neuron-specific enolase with propidium iodide followed published procedures (Current Protocols in Molecular Biology) and was used to identify cardiac neurons with advanced apoptotic condensation of nuclei. Procedures of immunohistology and image analysis are further described in detail in Graupner, WO 00/53236.

[6] = higher amounts, 20 mg/kg and higher, mice
[7] = in vivo administration to mice, dose not stated

With `CC1=C(/C=C/C(C)=C\C=C\C(C)=C\C(=O)O)C(C)(C)CCC1` [9cis-RA, 9-cis retinoic acid] the “colocalization of TUNEL signal in cardiac myocytes” value (cardiac myocytes; 20 mg/kg) was “No colocalization of TUNEL signal”, the “colocalization of TUNEL signal in cardiac myocytes” value (cardiac myocytes; less than 10 mg/kg) was “No colocalization of TUNEL signal” and the “death of mouse pups after gavage” value [1] was “sudden death of mouse pups”. For the same compound, the “IGFBP5 expression in cardiac myocytes” value (IGFBP5) was “moderately upregulated”, the “gas bubbles released from myocardial cells on H2O2 addition (endogenous peroxidase activity)” value [2] was “remarkable amounts of gas bubbles were released” and the “effect on growth (growth factor-dependent pathway)” value ([3]; 10 mg/kg) was “growth-inhibitory effect”. The “size of the average myocardial myocyte” value ([3]; 20 mg/kg or less than 10 mg/kg) was “reduced”, the myocardial growth stunting ([3]; around 10 mg/kg) was “approached complete growth arrest” and the growth of cardiomyocytes [3, 6] was “reduced growth of cardiomyocytes”. For the same compound, the growth of cardiomyocytes [3, 7] was “reduced growth of cardiomyocytes”, the “cell growth in heart” value ([3]; moderate amounts, 3-10 mg/kg, mice) was “reduced growth of cardiomyocytes, cardiac neurons, and cells of the cardiac conductance system” and the “immunoreactive Mn-SOD in mitochondria of cells in the cardiac outflow tract (FIG. 4)” value ([4]; versus carrier) was “upregulation”. For the same compound, the “upregulation of MnSOD protein signal” value ([4]; most likely area of the sino-atrial node proper) was 11 fold, the “upregulation of MnSOD protein signal” value ([4]; region of the atrium surrounding the sino-atrial node) was 3.4 fold and the “apoptosis in cardiac conductance cells of perinatal mouse heart (FIG. 3, confocal micrographs)” value ([5]; 20 mg/kg) was “colocalization of apoptosis in cardiac conductance cells”. The “correlation between apoptosis and conductance cell phenotype” value ([5]; 20 mg/kg) was “strong correlation”, the effect on apoptosis ([5]; 40 mg/kg) was “pro-apoptotic effect” and the “apoptosis of cardiac neurons and cardiac pacemaker cells” value [5, 6] was “apoptosis of cardiac neurons and cardiac pacemaker cells”. The “apoptosis in cardiac neurons and cardiac conductance system” value [5, 7] was “apoptosis in cardiac neurons and cells of the cardiac conductance system” and the “correlation between apoptosis and conductance cell type” value ([5]; less than 10 mg/kg) was “no correlation”.
For `CC1=C(/C=C/C(C)=C/C=C/C(C)=C/C(=O)O)C(C)(C)CCC1` [all-trans-RA, all-trans retinoic acid], the myocardial growth reduction ([3]; 40 mg/kg) was “less than 30%” and the “correlation between apoptosis and conductance cell type” value ([5]; 40 mg/kg) was “no correlation”.
